Laboratory results taken from US12538922B2, “Composition and methods for parasite control” (priority 2019, dated 2026).
Values joined by “and” are separate entries in the source; they are usually repeats but may differ in a detail not shown here. Equal entries are not always repeated. Structures can show the parent of a compound that is named as a salt. Where two headings read alike, the source gives them in different places.

How the values were obtained:
[1] = tested on: R. sanguineus tick larvae; details: for Repellence Median (Q1-Q3) [%] / Knockdown Median (Q1-Q3) [%]: pure compound; for Repellence Median (Q1-Q3) [%]: median of replicates; for Knockdown Median (Q1-Q3) [%]: motility reduction over 9 min; for Knockdown Minimum effective concentration / Repellence Minimum effective concentration: smallest concentration with median activity above 50% significance limit
Procedure: FIG. 1 Schematic representation of the tick repellent test. 30-60 tick larvae are deposited in the non-treated area of a circular arena (8.96 cm^2) whereby one quadrant of the surface (2.25 cm^2) is treated. After 1 minute, the distribution of ticks in the treated and untreated areas is measured for a duration of 2 minutes. The repellent/deterrent effect is expressed in %: 100% means that ticks completely avoided the treated surface. Toxicity is measured in the same setup over a duration of 8 minutes and the mortality is expressed in % motility reduction between the beginning and the end of the 8 minutes. Dosages are expressed as a quantity (mg or molarity) per surface unit (m^2), as the compound or extract is deposited at the bottom of the well. Pure compounds: dose given in micromoles/m^2; Extracts: dose given in micrograms/m^2. Tests were run in triplicates.
The assay is used to evaluate the repellent/deterrent potential of a test compound or extract. The test includes a preliminary assessment of knockdown efficacy as a secondary endpoint. Knockdown can be defined as a state of intoxication and paralysis that usually precedes death (Wickham et al. (1974) Pesticide Science 5(5): 657-664). The test relies on the questing behavior of ticks that explore their habitat to find a suitable host hunting site and their propensity to avoid areas treated with repellent or irritating substances. Tick knockdown is expressed as a reduction in total motility over a defined period of time, and not by collecting and counting the number of dead and live ticks at the end of the exposure period.
Plant extracts or synthetic pure alkaloids diluted in methanol (extracts) or ethanol (alkaloids) were deposited on the bottom of wells in a six-well plate. Only one quadrant ([…]) of the bottom surface of each well was treated. The solvent was left to evaporate. The final concentration of the plant extracts was, therefore, expressed in mg/m^2, or in micromoles per square meter (μmol/m^2) for the synthetic alkaloids. Final concentrations applied for plant extracts were 893 (R. sanguineus adults only), 446, 141, 44.6, 14.1, and 4.46 mg/m^2, and 300, 100, 30, 10, and 3 μmol/m^2 for pure alkaloids. Approximately 50 R. sanguineus tick larvae, and exactly 5 R. sanguineus adults, or 5 I. ricinus nymphs were added to the untreated area of each well. Positive (DEET, commercial tick repellent) and negative (methanol or ethanol) controls were evaluated in parallel. Each concentration tested was run in three or more test replicates. After a 1-min incubation on a heating plate, the frequency of tick movement in the treated quadrant and in each of the untreated quadrants was recorded by machine vision. Tick movement on the untreated surface was computed as the median of movement on the three untreated quadrants. To estimate deterrence recordings were performed over a period of 2 min for R. sanguineus larvae, and for 3 minutes for R. sanguineus adults and I. ricinus nymphs, after the 1-min pre-exposure period. To assess knockdown effect, recording was extended to 9 min (starting at the 1-min pre-exposure period and lasting an additional 8 minutes).
Deterrence activity was calculated as follows: Percent deterrence=1−(movements on treated area/movements on untreated area)×100.
A difference of 50% between total movements recorded in the treated area versus movements recorded in the untreated area was considered significant.
The tick knockdown effect was calculated similarly: Percent knockdown=1−(movements at the end of the imaging period/movements at the beginning of the imaging period)×100.
A difference of 50% between total movements recorded during the 1 min pre-exposure and total movements measured at 9 min of recording was considered significant.

[2] = tested on: adult Aedes aegypti mosquitoes; test: Mosquito repellency assay (landings and time on warm treated surface); format: in vivo; details: for Mean probing time [%, compared to control]: 100% = same time as on vehicle-treated surface; for Repellency, % reduction in landings vs vehicle control: repellency as percentage reduction of control, 100% = no landings
Procedure: The compound of the invention is mixed with ethanol to make a composition that can be applied to a surface and allowed to dry. After the surface is treated with the compounds of the invention and dried, it is heated to human body temperature, and the number of landings and the total time spent by the mosquitoes on the warm surface by adult Aedes aegypti mosquitoes is recorded automatically by machine vision to measure repellency of each compound.
Repellency (based on the number of individual landings on the warm surface) is expressed as a percentage reduction of the control, where the average number of mosquitoes landing on a warm surface treated only with the vehicle solvent is counted. 100% means no mosquitoes landed on the warm surface.
For mosquitoes that still landed on the warm surface, the time spent on the warm surface is also recorded and expressed as a percentage of the control, corresponding to the average time that mosquitoes spent on the same warm surface when treated only with the vehicle solvent. 100% mean that the mosquitoes spent the same time on the treated warm surface as on a warm surface treated only with the vehicle solvent.
Each compound/dose is tested in triplicate using a surface of 18.9 cm2 and 100 microliters of solution without the compound (the placebo) or with the compound dilution spread on the surface, and allowed to dry before the test. The average and standard error on triplicates is calculated. The control (using only vehicle solvent) is run with ethanol. The same population of mosquitoes is exposed first to the warm surface treated with the vehicle solvent, then to the surface treated with the compound. The concentration of the solution comprising the test compound was adjusted to ensure the treatment dosage of the compound is according to the final concentration per surface units area in the table.

[3] = Table 5, N = 3 subset of Table 4
[4] = Table 5, N = 3 subset of Table 4, dose 3
[5] = Table 5, N = 3 subset of Table 4, dose 30
[6] = Table 5, N = 3 subset of Table 4, dose 300
[7] = concentration 100 μmol/m^2, dihydrochloride

C1=CC[C@H](c2cccnc2)NC1 [(R)-anatabine dihydrochloride]
MEC (μmol/m^2) [1, 3]: 30 μmol/m^2 | % repellency [1, 4]: 0% | % repellency [1, 5]: 62% | % mortality [1, 6]: 24% | % repellency [1, 6]: 97% | Repellence Median (Q1-Q3) [%] ([1]; concentration 3 μmol/m^2): 20.8% | Knockdown Median (Q1-Q3) [%] ([1]; concentration 3 μmol/m^2): 0% | Repellence Median (Q1-Q3) [%] ([1]; concentration 10 μmol/m^2, dihydrochloride): 34.4% | Repellence Median (Q1-Q3) [%] ([1]; concentration 10 μmol/m^2, listed as (R)-anatabine, dihydrochloride): 34% | Knockdown Median (Q1-Q3) [%] ([1]; concentration 10 μmol/m^2): 7.5% | Repellence Median (Q1-Q3) [%] ([1]; concentration 30 μmol/m^2, dihydrochloride): 62.0% | Repellence Median (Q1-Q3) [%] ([1]; concentration 30 μmol/m^2, listed as (R)-anatabine, dihydrochloride): 62% | Knockdown Median (Q1-Q3) [%] ([1]; concentration 30 μmol/m^2): 11.1% | Repellence Median (Q1-Q3) [%] [1, 7]: 84.3% | Repellence Median (Q1-Q3) [%] ([1]; concentration 100 μmol/m^2, listed as (R)-anatabine, dihydrochloride): 84% | Knockdown Median (Q1-Q3) [%] [1, 7]: 54.5% | Repellence Median (Q1-Q3) [%] ([1]; concentration 300 μmol/m^2): 88.3% | Knockdown Median (Q1-Q3) [%] ([1]; concentration 300 μmol/m^2, dihydrochloride): 52.7% | Knockdown Minimum effective concentration [1]: 100 μmol/m^2 | Repellence Minimum effective concentration ([1]; dihydrochloride): 30 μmol/m^2 | Mean probing time [%, compared to control] ([2]; dose 380 μmol/m^2): 128.9% | Repellency, % reduction in landings vs vehicle control ([2]; dose 380 μmol/m^2): 8.1% | Mean probing time [%, compared to control] ([2]; dose 760 μmol/m^2): 48.5% | Repellency, % reduction in landings vs vehicle control ([2]; dose 760 μmol/m^2): 42.9%

C1=CC[C@@H](c2cccnc2)NC1 (single isomer, unassigned) [S enantiomer base, S-(−) anatabine]
Mean probing time [%, compared to control] ([2]; dose 75 μmol/m^2): 20.6% | Repellency, % reduction in landings vs vehicle control ([2]; dose 75 μmol/m^2): 86.5% | Mean probing time [%, compared to control] ([2]; dose 380 μmol/m^2): 1.6% | Repellency, % reduction in landings vs vehicle control ([2]; dose 380 μmol/m^2): 90.0%

c1cncc([C@@H]2CCCCN2)c1 [(S)-anabasine]
MEC (μmol/m^2) [1, 3]: >300 μmol/m^2 | % mortality [1, 6]: 14% | % repellency [1, 6]: 9% | Repellence Median (Q1-Q3) [%] ([1]; concentration 3 μmol/m^2): 6.6% | Knockdown Median (Q1-Q3) [%] ([1]; concentration 3 μmol/m^2): 0% | Repellence Median (Q1-Q3) [%] ([1]; concentration 10 μmol/m^2): 42.4% | Knockdown Median (Q1-Q3) [%] ([1]; concentration 10 μmol/m^2): 6.9% | Repellence Median (Q1-Q3) [%] ([1]; concentration 30 μmol/m^2): 46.9% | Knockdown Median (Q1-Q3) [%] ([1]; concentration 30 μmol/m^2): 10.4% | Repellence Median (Q1-Q3) [%] ([1]; concentration 100 μmol/m^2): 58% | Knockdown Median (Q1-Q3) [%] ([1]; concentration 100 μmol/m^2): 6.0% | Repellence Median (Q1-Q3) [%] ([1]; concentration 300 μmol/m^2): 40.5% | Knockdown Median (Q1-Q3) [%] ([1]; concentration 300 μmol/m^2): 9.5% | Knockdown Minimum effective concentration [1]: >300 μmol/m^2

CCN(CC)C(=O)c1cccc(C)c1 [DEET, N,N-Diethyl-m-toluamide]
% repellency [1, 4]: 27% | % repellency [1, 5]: 26% | % repellency [1, 6]: 100% | % mortality ([1]; in vivo): 11% | % repellency ([1]; positive control, dose 8.5 (mg/m^2)): 81.6% | Repellence Median (Q1-Q3) [%] ([1]; concentration 3 μmol/m^2): 31.1% | Knockdown Median (Q1-Q3) [%] ([1]; concentration 3 μmol/m^2): 0.7% | Repellence Median (Q1-Q3) [%] ([1]; concentration 10 μmol/m^2): 57% and 57.3% | Knockdown Median (Q1-Q3) [%] ([1]; concentration 10 μmol/m^2): 10.0% | Repellence Median (Q1-Q3) [%] ([1]; concentration 30 μmol/m^2): 64% and 63.9% | Knockdown Median (Q1-Q3) [%] ([1]; concentration 30 μmol/m^2): 2.4% | Repellence Median (Q1-Q3) [%] ([1]; concentration 100 μmol/m^2): 75.7% | Knockdown Median (Q1-Q3) [%] ([1]; concentration 100 μmol/m^2): 5.2% | Repellence Median (Q1-Q3) [%] ([1]; concentration 300 μmol/m^2): 100% | Knockdown Median (Q1-Q3) [%] ([1]; concentration 300 μmol/m^2): 11.1% | Knockdown Minimum effective concentration [1]: >300 μmol/m^2 | Repellence Minimum effective concentration [1]: 10 μmol/m^2 | MEC (Repellency) (mg/m^2) ([1]; tobacco extracts and DEET positive control): 8.5 mg/m^2

C1=CCC(c2cccnc2)NC1 (centres unmarked) [anatabine]
mosquito repellency, base form compared with HCl salt form ([2]; in vivo): significantly better mosquito repellent than in the HCl salt form | time spent by mosquitoes on treated surface, base form compared with HCl salt form ([2]; in vivo): much shorter time

CN1CCC[C@H]1c1cccnc1 [(S)-nicotine]
Knockdown Median (Q1-Q3) [%] ([1]; concentration 3 μmol/m^2): 3.4% | Knockdown Median (Q1-Q3) [%] ([1]; concentration 10 μmol/m^2): 1.3% | Knockdown Median (Q1-Q3) [%] ([1]; concentration 30 μmol/m^2): 26.4% | Knockdown Median (Q1-Q3) [%] ([1]; concentration 100 μmol/m^2): 37% and 37.1% | Knockdown Median (Q1-Q3) [%] ([1]; concentration 300 μmol/m^2): 95% and 94.5% | Knockdown Minimum effective concentration [1]: 300 μmol/m^2

c1cncc([C@@H]2CCCN2)c1 [(S)-nornicotine]
MEC (μmol/m^2) [1, 3]: 300 μmol/m^2 | % mortality [1, 5]: 11% | % repellency [1, 5]: 5% | % mortality [1, 6]: 49% | % repellency [1, 6]: 70% | Repellence Median (Q1-Q3) [%] ([1]; concentration 3 μmol/m^2): 12.3% | Knockdown Median (Q1-Q3) [%] ([1]; concentration 3 μmol/m^2): 0.7% | Repellence Median (Q1-Q3) [%] ([1]; concentration 10 μmol/m^2): 35.3% | Knockdown Median (Q1-Q3) [%] ([1]; concentration 10 μmol/m^2): 0.4% | Repellence Median (Q1-Q3) [%] ([1]; concentration 30 μmol/m^2): 27.9% | Knockdown Median (Q1-Q3) [%] ([1]; concentration 30 μmol/m^2): 9.9% | Repellence Median (Q1-Q3) [%] ([1]; concentration 100 μmol/m^2): 42.2% | Knockdown Median (Q1-Q3) [%] ([1]; concentration 100 μmol/m^2): 9% | Repellence Median (Q1-Q3) [%] ([1]; concentration 300 μmol/m^2): 81% and 81.1% | Knockdown Median (Q1-Q3) [%] ([1]; concentration 300 μmol/m^2): 18.7% | Knockdown Minimum effective concentration [1]: >300 μmol/m^2 | Repellence Minimum effective concentration [1]: 300 μmol/m^2

C1=CC[C@H](c2cccnc2)NC1 (single isomer, unassigned) [R enantiomer base, R-(+) anatabine]
Mean probing time [%, compared to control] ([2]; dose 75 μmol/m^2): 29.0% | Repellency, % reduction in landings vs vehicle control ([2]; dose 75 μmol/m^2): 68.9% | Mean probing time [%, compared to control] ([2]; dose 380 μmol/m^2): 2.7% | Repellency, % reduction in landings vs vehicle control ([2]; dose 380 μmol/m^2): 77.9%
